Laboratory results published in US20080207614A1, “QUINAZOLINE DERIVATIVES FOR THE TREATMENT AND PREVENTION OF DIABETES AND OBESITY” (SK CHEMICALS CO., LTD., priority 2004, published 2008).

tested on: C2C12 muscle cells; assay: Analysis of glucose absorption (2-deoxyglucose) in differentiated C2C12 muscle cells; format: cell-based; conditions: test materials 10 μM, times relative to control group
Protocol: C2C12 muscle cells were cultured in DMEM (Dulbecco's modified Eagle's medium) containing 10% bovine calf serum. When the cell density increased to about 85 to 90%, the culture medium was replaced with 1% bovine calf serum and cell differentiation was induced for 6 days. Completely differentiated cells were cultured for 3 hours with Krebs-Ringer buffer (KRB) containing 5 mM glucose. The test materials were added at a concentration of 10 μM. 30 minutes later, 0.2 μCi 2-deoxyglucose was added. KRB was removed 20 minutes later and the cells were washed for 3 times with cold PBS. The cells were lysed with 0.5N NaOH and counted using a radioactive counter.

| Compound | Glucose absorption |
| --- | --- |
| c1ccc(-c2nc(NCC3CCCC3)c3ccccc3n2)cc1 [Compound 159, Cyclopentylmethyl-(2-phenylquinazolino-4-yl)-amine] | 2.6 |
| c1ccc(-c2nc(NCCN3CCNCC3)c3ccccc3n2)cc1 [Compound 160, (2-Phenylquinazolino-4-yl)-(2-piperazino-1-ylethyl)-amine] | 2.5 |
| O=[N+]([O-])c1ccc(CONc2nc(-c3ccccc3)nc3ccccc23)cc1 [Compound 161, O-(4-Nitrobenzyl)-N-(2-phenylquinazolino-4-yl)-hydroxylamine] | 1.1 |
| Clc1ccc(Nc2nc(-c3ccccc3)nc3ccccc23)cc1 [Compound 162, (4-Chlorophenyl)-(2-phenylquinazolino-4-yl)-amine] | 1.3 |
| Cc1nc(NCCOCCO)c2ccccc2n1 [Compound 173, 2-[2-(2-Methylquinazolino-4-ylamino)-ethoxy]-ethanol] | 1.3 |
| Cc1nc(NCCO)c2ccccc2n1 [Compound 174, 2-(2-Methylquinazolino-4-ylamino)-ethanol] | 1.2 |
| CC(C)c1nc(NCCOCCO)c2ccccc2n1 [Compound 185, 2-[2-(2-Isopropylquinazolino-4-ylamino)-ethoxy]-ethanol] | 1.4 |
| CC(C)c1nc(NCCO)c2ccccc2n1 [Compound 186, 2-(2-Isopropylquinazolino-4-ylamino)-ethanol] | 1.0 |
| COc1cccc(CNc2nc(C(C)(C)C)nc3ccccc23)c1 [Compound 188, (2-tert-Butylquinazolino-4-yl)-(3-methoxybenzyl)-amine] | 1.0 |
| COc1ccc(CNc2nc(C(C)(C)C)nc3ccccc23)cc1 [Compound 189, (2-tert-Butylquinazolino-4-yl)-(4-methoxybenzyl)-amine] | 1.3 |
| CC(C)(C)c1nc(NCc2cccc(C(F)(F)F)c2)c2ccccc2n1 [Compound 190, (2-tert-Butylquinazolino-4-yl)-(3-trifluoromethylbenzyl)-amine] | 1.2 |
| CC(C)(C)c1nc(NCc2cccc3ccccc23)c2ccccc2n1 [Compound 193, (2-tert-Butylquinazolino-4-yl)-naphthaleno-1-ylmethylamine] | 1.3 |
| CC(C)(C)c1nc(NCc2ccc3c(c2)OCO3)c2ccccc2n1 [Compound 194, Benzo[1,3]dioxol-5-ylmethyl-(2-tert-butylquinazolino-4-yl)-amine] | 1.4 |
| CC(C)(C)c1nc(NCc2cccc(F)c2)c2ccccc2n1 [Compound 195, (2-tert-Butylquinazolino-4-yl)-(3-fluorobenzyl)-amine] | 1.2 |
| CC(C)(C)c1nc(NCCOCCO)c2ccccc2n1 [Compound 197, 2-[2-(2-tert-Butylquinazolino-4-ylamino)-ethoxy]-ethanol] | 1.3 |
| CC(C)(C)c1nc(NCCO)c2ccccc2n1 [Compound 198, 2-(2-tert-Butylquinazolino-4-ylamino)-ethanol] | 1.4 |
| FC(F)(F)c1cccc(CNc2nc(C3CCCCC3)nc3ccccc23)c1 [Compound 202, (2-Cyclohexylquinazolino-4-yl)-(3-trifluoromethylbenzyl)-amine] | 1.4 |
| c1ccc(CCCCNc2nc(C3CCCCC3)nc3ccccc23)cc1 [Compound 204, (2-Cyclohexylquinazolino-4-yl)-(4-phenylbutyl)-amine] | 1.2 |
| c1ccc2c(CNc3nc(C4CCCCC4)nc4ccccc34)cccc2c1 [Compound 205, (2-Cyclohexylquinazolino-4-yl)-naphthaleno-1-ylmethylamine] | 1.3 |

| Compound | Glucose absorption |
| --- | --- |
| c1ccc2c(NCc3ccc4c(c3)OCO4)nc(C3CCCCC3)nc2c1 [Compound 206, Benzo[1,3]dioxol-5-ylmethyl-(2-cyclohexylquinazolino-4-yl)-amine] | 1.4 |
| Fc1cccc(CNc2nc(C3CCCCC3)nc3ccccc23)c1 [Compound 207, (2-Cyclohexylquinazolino-4-yl)-(3-fluorobenzyl)-amine] | 2.0 |
| Fc1cccc(CCNc2nc(C3CCCCC3)nc3ccccc23)c1 [Compound 208, (2-Cyclohexylquinazolino-4-yl)-[2-(3-fluorophenyl)-ethyl]-amine] | 2.0 |
| OCCOCCNc1nc(C2CCCCC2)nc2ccccc12 [Compound 209, 2-[2-(2-Cyclohexylquinazolino-4-ylamino)-ethoxy]-ethanol] | 1.1 |
| OCCNc1nc(C2CCCCC2)nc2ccccc12 [Compound 210, 2-(2-Cyclohexylquinazolino-4-ylamino)-ethanol] | 0.9 |
| c1ccc(CNc2nc(Cc3ccccc3)nc3ccccc23)cc1 [Compound 211, Benzyl-(2-benzylquinazolino-4-yl)-amine] | 1.3 |
| COc1cccc(CNc2nc(Cc3ccccc3)nc3ccccc23)c1 [Compound 212, (2-Benzylquinazolino-4-yl)-(3-methoxybenzyl)-amine] | 2.0 |
| COc1ccc(CNc2nc(Cc3ccccc3)nc3ccccc23)cc1 [Compound 213, (2-Benzylquinazolino-4-yl)-(4-methoxybenzyl)-amine] | 1.4 |
| FC(F)(F)c1cccc(CNc2nc(Cc3ccccc3)nc3ccccc23)c1 [Compound 214, (2-Benzylquinazolino-4-yl)-(3-trifluoromethylbenzyl)-amine] | 2.0 |
| c1ccc(CCNc2nc(Cc3ccccc3)nc3ccccc23)cc1 [Compound 215, (2-Benzylquinazolino-4-yl)-phenethylamine] | 2.2 |
| c1ccc(CCCCNc2nc(Cc3ccccc3)nc3ccccc23)cc1 [Compound 216, (2-Benzylquinazolino-4-yl)-(4-phenylbutyl)-amine] | 2.6 |
| c1ccc(Cc2nc(NCc3cccc4ccccc34)c3ccccc3n2)cc1 [Compound 217, (2-Benzylquinazolino-4-yl)-naphthaleno-1-ylmethylamine] | 1.2 |
| c1ccc(Cc2nc(NCc3ccc4c(c3)OCO4)c3ccccc3n2)cc1 [Compound 218, Benzo[1,3]dioxol-5-ylmethyl-(2-benzylquinazolino-4-yl)-amine] | 2.0 |
| Fc1cccc(CNc2nc(Cc3ccccc3)nc3ccccc23)c1 [Compound 219, (2-Benzylquinazolino-4-yl)-(3-fluorobenzyl)-amine] | 2.3 |
| Fc1cccc(CCNc2nc(Cc3ccccc3)nc3ccccc23)c1 [Compound 220, (2-Benzylquinazolino-4-yl)-[2-(3-fluorophenyl)-ethyl]-amine] | 2.5 |
| OCCOCCNc1nc(Cc2ccccc2)nc2ccccc12 [Compound 221, 2-[2-(2-Benzylquinazolino-4-ylamino)-ethoxy]-ethanol] | 1.5 |
| OCCNc1nc(Cc2ccccc2)nc2ccccc12 [Compound 222, 2-(2-Benzylquinazolino-4-ylamino)-ethanol] | 1.2 |
| c1ccc(CNc2nc(-c3ccccn3)nc3ccccc23)cc1 [Compound 223, Benzyl-(2-pyridino-2-ylquinazolino-4-yl)-amine] | 1.7 |
| COc1cccc(CNc2nc(-c3ccccn3)nc3ccccc23)c1 [Compound 224, (3-Methoxybenzyl)-(2-pyridino-2-ylquinazolino-4-yl)-amine] | 1.1 |
